Assay [1] has as its target T1, human ANO6 (Homo sapiens, UniProt Q4KMQ2).
T1 construct: expressed in transfected cells
T1 sequence (Q4KMQ2 1-931 isoform Q4KMQ2-2): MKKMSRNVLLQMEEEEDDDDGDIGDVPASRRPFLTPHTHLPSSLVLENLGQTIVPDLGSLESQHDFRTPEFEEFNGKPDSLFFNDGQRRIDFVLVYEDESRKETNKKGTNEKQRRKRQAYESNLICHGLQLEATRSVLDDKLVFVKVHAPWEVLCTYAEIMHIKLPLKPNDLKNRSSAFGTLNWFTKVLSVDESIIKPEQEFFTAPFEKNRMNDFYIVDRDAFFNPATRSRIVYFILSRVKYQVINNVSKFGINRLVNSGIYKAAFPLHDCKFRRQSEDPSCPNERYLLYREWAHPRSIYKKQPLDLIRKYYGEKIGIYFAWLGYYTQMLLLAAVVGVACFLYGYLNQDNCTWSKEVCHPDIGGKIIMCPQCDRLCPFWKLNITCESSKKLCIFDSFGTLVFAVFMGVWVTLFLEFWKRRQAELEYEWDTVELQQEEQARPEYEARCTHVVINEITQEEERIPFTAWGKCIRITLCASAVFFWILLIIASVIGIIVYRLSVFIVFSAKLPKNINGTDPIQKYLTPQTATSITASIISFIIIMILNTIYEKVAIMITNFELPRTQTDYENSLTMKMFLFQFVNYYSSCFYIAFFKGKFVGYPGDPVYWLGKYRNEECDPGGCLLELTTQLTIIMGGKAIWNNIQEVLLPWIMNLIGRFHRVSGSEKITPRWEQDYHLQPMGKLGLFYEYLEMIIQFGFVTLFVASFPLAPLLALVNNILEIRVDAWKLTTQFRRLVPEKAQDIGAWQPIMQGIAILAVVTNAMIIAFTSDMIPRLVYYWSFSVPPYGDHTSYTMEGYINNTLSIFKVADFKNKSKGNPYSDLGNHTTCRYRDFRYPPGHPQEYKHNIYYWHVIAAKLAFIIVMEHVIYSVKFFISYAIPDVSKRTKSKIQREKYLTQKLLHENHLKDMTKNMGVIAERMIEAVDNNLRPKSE
As to the kind of experiment: YFP quenching assay (ANO6 ion channel activity). The class given is cell-based. The settings on record: 10 μM ionomycin; for inhibition at 1 µM: test compound 1 μM, read-out: Inhibition Level 1 μM; for inhibition at 30 µM: test compound 30 μM, read-out: Inhibition Level 30 μM. Put shortly:
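FRT cells stably expressing human ANO6 and YFP-H148Q/I152L/F46L, preincubated 10 min at 40° C with compounds (1% DMSO) in PBS. Quench read every 0.4 s after injecting 140 mM SCN- with 10 μM ionomycin; % inhibition from the 3.6–7.6 s fluorescence difference, normalised to no-ionomycin (100%) and ionomycin-only (0%) wells, duplicate or triplicate.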

The target of assay [2] is T1, human ANO6. The assay is described as follows: LACT C2 assay (phosphatidylserine scramblase function assay). Type of assay: cell-based. The settings on record: FRT cells expressing human ANO6, 10 μM ionomycin; for inhibition at 1 µM: test compound 1 μM, read-out: Inhibition Level 1 μM. In short, it runs like this:
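FRT cells stably expressing human ANO6 were pretreated with compound (1% DMSO) for 10 min, then stimulated with 10 μM ionomycin for 10 min. Surface phosphatidylserine was stained with 500 nM Lact-C2-GFP and quantified by imaging. Inhibition was scaled between unstimulated (100%) and ionomycin-only (0%) controls, averaged over triplicates.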

The inhibition is how much of the control response was suppressed.

For `Cc1ccc(CNC(=O)c2cccc(Nc3cnc(-c4ccccc4)cn3)c2)o1` [Compound 1, N-[(5-methylfuran-2-yl)methyl]-3-[(5-phenylpyrazin-2-yl)amino]benzamide], in assay [1], the inhibition at 1 µM is 30 to 60% and the inhibition at 30 µM is ≥ 60%. In assay [2], the inhibition at 1 µM was ≥ 60%.

For the molecule `Cc1ccc(CNC(=O)c2cccc(Nc3ncc(-c4ccc(C)o4)cn3)c2)o1` [Compound 92, N-[(5-methylfuran-2-yl)methyl]-3-{[5-(5-methylfuran-2-yl)pyrimidin-2-yl]amino}benzamide], the inhibition at 1 µM in assay [1] and in assay [2] was < 30% each time.

Take `O=C(NC1CCCC1)c1cccc(Nc2ccc(-c3ccccc3)nn2)c1` [Compound A63]: the inhibition at 1 µM is ≥ 60% in assay [1] and < 30% in assay [2]. Moreover, in assay [1], the inhibition at 30 µM was ≥ 60%. Further, in assay [2] (test compound 100 nM, read-out: Inhibition Level 100 nM), the inhibition at 0.1 µM is < 30%.

As to `O=C(NCc1cccnc1)c1cccc(Nc2ccc(-c3ccccc3)nn2)c1` [Compound 20, 3-[(6-phenylpyridazin-3-yl)amino]-N-[(pyridin-3-yl)methyl]benzamide], in assay [1], the inhibition at 1 µM lay in the range of 30 to 60% and the inhibition at 30 µM was ≥ 60%.

As for `Cc1ccc(CNC(=O)c2cccc(Nc3ccc(C(C)C)nn3)c2)o1` [Compound 85, N-[(5-methylfuran-2-yl)methyl]-3-{[6-(propan-2-yl)pyridazin-3-yl]amino}benzamide], the inhibition at 1 µM in assay [1] lay in the range of 30 to 60%.

Consider `Cc1ccc(CNC(=O)c2cccc(Nc3nccc(-c4ccccc4)n3)c2)o1` [Compound 89, N-[(5-methylfuran-2-yl)methyl]-3-[(4-phenylpyrimidin-2-yl)amino]benzamide], for which the inhibition at 1 µM in assay [1] was < 30%.

Regarding `Cc1ccc(CNC(=O)c2cccc(Nc3ncc(-c4cccc(F)c4)cn3)c2)o1` [Compound A20], in assay [1], the inhibition at 1 µM was < 30% and the inhibition at 30 µM fell in the range of 30 to 60%.

Regarding `CCN(CC)CCNC(=O)c1cccc(Nc2ncc(-c3ccccc3)cn2)c1` [Compound 96, N-[2-(diethylamino)ethyl]-3-[(5-phenylpyrimidin-2-yl)amino]benzamide], the inhibition at 1 µM in assay [1] was < 30%.

Turning to `Cc1ccc(-c2ccc(Nc3cccc(C(=O)NCc4ccc(C)o4)c3)nn2)cc1` [Compound A7], in assay [1], the inhibition at 1 µM was < 30% and the inhibition at 30 µM was ≥ 60%.

As to `COc1ccc(-c2ccc(Nc3cccc(C(=O)NCc4ccc(C)o4)c3)nn2)cc1` [Compound 13, 3-{[6-(4-methoxyphenyl)pyridazin-3-yl]amino}-N-[(5-methylfuran-2-yl)methyl]benzamide], in assay [1], the inhibition at 1 µM was < 30% and the inhibition at 30 µM is ≥ 60%.

In the case of `Cc1ccc(CNC(=O)c2cccc(Nc3ncc(-c4ccc(C(F)(F)F)cc4)cn3)c2)o1` [Compound 100, N-[(5-methylfuran-2-yl)methyl]-3-({5-[4-(trifluoromethyl)phenyl]pyrimidin-2-yl}amino)benzamide], the inhibition at 1 µM in assay [1] is < 30%.

`Cc1ccc(CNC(=O)c2cccc(Nc3cnc(-c4ccccc4)nc3)c2)o1` [Compound 11, N-[(5-methylfuran-2-yl)methyl]-3-[(2-phenylpyrimidin-5-yl)amino]benzamide]: in assay [1], the inhibition at 1 µM was 30 to 60% and the inhibition at 30 µM is ≥ 60%.

For `CN1CCN(CCNC(=O)c2cccc(Nc3ncc(-c4ccccc4)cn3)c2)CC1` [Compound 97, N-[2-(4-methylpiperazin-1-yl)ethyl]-3-[(5-phenylpyrimidin-2-yl)amino]benzamide], in assay [1], the inhibition at 1 µM was < 30%.

As to `COCCCNC(=O)c1cccc(Nc2ccc(-c3ccccc3)nn2)c1` [Compound A69], in assay [1], the inhibition at 1 µM was in the range of 30 to 60% and the inhibition at 30 µM was ≥ 60%.

On to `Cc1ccc(CNC(=O)c2cccc(Nc3ccc(CCc4ccc(F)cc4)nn3)c2)o1` [Compound 77, 3-({6-[2-(4-fluorophenyl)ethyl]pyridazin-3-yl}amino)-N-[(5-methylfuran-2-yl)methyl]benzamide], for which the inhibition at 1 µM in assay [1] is < 30%.

For `CCOC(=O)c1cccc(-c2cnc(Nc3cccc(C(=O)NCc4ccc(C)o4)c3)nc2)c1` [Compound 101, ethyl 3-{2-[(3-{[(5-methylfuran-2-yl)methyl]carbamoyl}phenyl)amino]pyrimidin-5-yl}benzoate], the inhibition at 1 µM in assay [1] was < 30%.

As for `NC(=O)c1ccc(Nc2ccc(-c3ccccc3)nn2)cc1` [Compound A86], the inhibition at 30 µM in assay [1] fell in the range of 30 to 60%.

For the molecule `CN(C)CCNC(=O)c1cccc(Nc2ncc(-c3ccccc3)cn2)c1` [Compound 95, N-[2-(dimethylamino)ethyl]-3-[(5-phenylpyrimidin-2-yl)amino]benzamide], the inhibition at 1 µM in assay [1] was < 30%.

As to `Cc1ccc(CNC(=O)c2cccc(Nc3ccc(-c4cccc(F)c4)nn3)c2)cc1` [Compound A25], in assay [1], the inhibition at 1 µM was 30 to 60% and the inhibition at 30 µM is ≥ 60%.

In the case of `O=C(NC1CCCc2ccccc21)c1cccc(Nc2ccc(-c3ccccc3)nn2)c1` (centres unmarked) [Compound A56], in assay [1], the inhibition at 1 µM is 30 to 60% and the inhibition at 30 µM was ≥ 60%.

As for `Cc1ccc(CNC(=O)c2cccc(Nc3ccc(-c4ccncc4)nn3)c2)o1` [Compound 9, N-[(5-methylfuran-2-yl)methyl]-3-{[6-(pyridin-4-yl)pyridazin-3-yl]amino}benzamide], in assay [1], the inhibition at 1 µM is < 30% and the inhibition at 30 µM is ≥ 60%.

Turning to `O=C(NCc1ccccn1)c1cccc(Nc2ccc(-c3ccccc3)nn2)c1` [Compound 19, 3-[(6-phenylpyridazin-3-yl)amino]-N-[(pyridin-2-yl)methyl]benzamide], in assay [1], the inhibition at 1 µM is < 30% and the inhibition at 30 µM is ≥ 60%.

With `CCc1ccc(Nc2cccc(C(=O)NCc3ccc(C)o3)c2)nn1` [Compound 84, 3-[(6-ethylpyridazin-3-yl)amino]-N-[(5-methylfuran-2-yl)methyl]benzamide], the inhibition at 1 µM in assay [1] was < 30%.

For the molecule `Cc1ccc(-c2ccc(Nc3cccc(C(=O)NCc4ccc(Br)cc4)c3)nn2)cc1` [Compound A30], in assay [1], the inhibition at 30 µM is < 30%.

Consider `Cc1ccc(CNC(=O)c2cccc(Nc3ccc(CC(C)C)nn3)c2)o1` [Compound 61, N-[(5-methylfuran-2-yl)methyl]-3-{[6-(2-methylpropyl)pyridazin-3-yl]amino}benzamide], for which, in assay [1], the inhibition at 1 µM was < 30%.

As to `Cc1ccc(CNC(=O)c2cccc(Nc3ccc(C4CCN(C(=O)OC(C)(C)C)CC4)nn3)c2)o1` [Compound 69, tert-butyl 4-{6-[(3-{[(5-methylfuran-2-yl)methyl]carbamoyl}phenyl)amino]pyridazin-3-yl}piperidine-1-carboxylate], in assay [1], the inhibition at 1 µM is < 30%.

In the case of `O=C(NCCc1ccc2c(c1)OCO2)c1cccc(Nc2ncc(-c3ccccc3)cn2)c1` [Compound 106, N-[2-(2H-1,3-benzodioxol-5-yl)ethyl]-3-[(5-phenylpyrimidin-2-yl)amino]benzamide], in assay [1], the inhibition at 1 µM fell in the range of 30 to 60%.

Consider `O=C(NCCCN1CCOCC1)c1cccc(Nc2ccc(-c3ccccc3)nn2)c1` [Compound 15, N-[3-(morpholin-4-yl)propyl]-3-[(6-phenylpyridazin-3-yl)amino]benzamide], for which, in assay [1], the inhibition at 1 µM is < 30% and the inhibition at 30 µM was 30 to 60%.

As for `Cc1ccc(CNC(=O)c2cccc(Nc3ccc(-c4ccccn4)nn3)c2)o1` [Compound 23, N-[(5-methylfuran-2-yl)methyl]-3-{[6-(pyridin-2-yl)pyridazin-3-yl]amino}benzamide], in assay [1], the inhibition at 1 µM is < 30% and the inhibition at 30 µM is ≥ 60%.
